molecular target: T1, MKP3 (Homo sapiens, UniProt Q16828); assay: PTP inhibition assay (pNPP); format: biochemical; conditions: not given
T1 sequence (Q16828 1-381): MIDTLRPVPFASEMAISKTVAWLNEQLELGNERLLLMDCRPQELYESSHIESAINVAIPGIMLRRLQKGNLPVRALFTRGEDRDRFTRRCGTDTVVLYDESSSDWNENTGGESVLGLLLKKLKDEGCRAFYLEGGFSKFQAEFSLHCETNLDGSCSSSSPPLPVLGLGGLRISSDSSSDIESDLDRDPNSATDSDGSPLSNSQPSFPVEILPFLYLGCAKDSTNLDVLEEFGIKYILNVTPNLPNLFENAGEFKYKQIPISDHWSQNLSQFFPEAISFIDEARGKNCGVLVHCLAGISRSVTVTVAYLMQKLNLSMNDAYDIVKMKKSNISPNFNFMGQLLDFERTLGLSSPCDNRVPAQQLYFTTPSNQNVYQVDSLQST

Row | SMILES | IC50
1 | O=C(CS(=O)(=O)O)Nc1nc2ccc([N+](=O)[O-])cc2s1 [Compound L335N15-07] | > 100 µM
2 | O=C(CS(=O)(=O)O)Nc1nc2ccccc2s1 [Compound L335N15] | > 100 µM

molecular target: PTPσ (Homo sapiens, UniProt Q13332); assay: PTP inhibition assay (pNPP); format: biochemical; conditions: read-out: IC50 PTPσ
Sequence (Q13332 30-1948): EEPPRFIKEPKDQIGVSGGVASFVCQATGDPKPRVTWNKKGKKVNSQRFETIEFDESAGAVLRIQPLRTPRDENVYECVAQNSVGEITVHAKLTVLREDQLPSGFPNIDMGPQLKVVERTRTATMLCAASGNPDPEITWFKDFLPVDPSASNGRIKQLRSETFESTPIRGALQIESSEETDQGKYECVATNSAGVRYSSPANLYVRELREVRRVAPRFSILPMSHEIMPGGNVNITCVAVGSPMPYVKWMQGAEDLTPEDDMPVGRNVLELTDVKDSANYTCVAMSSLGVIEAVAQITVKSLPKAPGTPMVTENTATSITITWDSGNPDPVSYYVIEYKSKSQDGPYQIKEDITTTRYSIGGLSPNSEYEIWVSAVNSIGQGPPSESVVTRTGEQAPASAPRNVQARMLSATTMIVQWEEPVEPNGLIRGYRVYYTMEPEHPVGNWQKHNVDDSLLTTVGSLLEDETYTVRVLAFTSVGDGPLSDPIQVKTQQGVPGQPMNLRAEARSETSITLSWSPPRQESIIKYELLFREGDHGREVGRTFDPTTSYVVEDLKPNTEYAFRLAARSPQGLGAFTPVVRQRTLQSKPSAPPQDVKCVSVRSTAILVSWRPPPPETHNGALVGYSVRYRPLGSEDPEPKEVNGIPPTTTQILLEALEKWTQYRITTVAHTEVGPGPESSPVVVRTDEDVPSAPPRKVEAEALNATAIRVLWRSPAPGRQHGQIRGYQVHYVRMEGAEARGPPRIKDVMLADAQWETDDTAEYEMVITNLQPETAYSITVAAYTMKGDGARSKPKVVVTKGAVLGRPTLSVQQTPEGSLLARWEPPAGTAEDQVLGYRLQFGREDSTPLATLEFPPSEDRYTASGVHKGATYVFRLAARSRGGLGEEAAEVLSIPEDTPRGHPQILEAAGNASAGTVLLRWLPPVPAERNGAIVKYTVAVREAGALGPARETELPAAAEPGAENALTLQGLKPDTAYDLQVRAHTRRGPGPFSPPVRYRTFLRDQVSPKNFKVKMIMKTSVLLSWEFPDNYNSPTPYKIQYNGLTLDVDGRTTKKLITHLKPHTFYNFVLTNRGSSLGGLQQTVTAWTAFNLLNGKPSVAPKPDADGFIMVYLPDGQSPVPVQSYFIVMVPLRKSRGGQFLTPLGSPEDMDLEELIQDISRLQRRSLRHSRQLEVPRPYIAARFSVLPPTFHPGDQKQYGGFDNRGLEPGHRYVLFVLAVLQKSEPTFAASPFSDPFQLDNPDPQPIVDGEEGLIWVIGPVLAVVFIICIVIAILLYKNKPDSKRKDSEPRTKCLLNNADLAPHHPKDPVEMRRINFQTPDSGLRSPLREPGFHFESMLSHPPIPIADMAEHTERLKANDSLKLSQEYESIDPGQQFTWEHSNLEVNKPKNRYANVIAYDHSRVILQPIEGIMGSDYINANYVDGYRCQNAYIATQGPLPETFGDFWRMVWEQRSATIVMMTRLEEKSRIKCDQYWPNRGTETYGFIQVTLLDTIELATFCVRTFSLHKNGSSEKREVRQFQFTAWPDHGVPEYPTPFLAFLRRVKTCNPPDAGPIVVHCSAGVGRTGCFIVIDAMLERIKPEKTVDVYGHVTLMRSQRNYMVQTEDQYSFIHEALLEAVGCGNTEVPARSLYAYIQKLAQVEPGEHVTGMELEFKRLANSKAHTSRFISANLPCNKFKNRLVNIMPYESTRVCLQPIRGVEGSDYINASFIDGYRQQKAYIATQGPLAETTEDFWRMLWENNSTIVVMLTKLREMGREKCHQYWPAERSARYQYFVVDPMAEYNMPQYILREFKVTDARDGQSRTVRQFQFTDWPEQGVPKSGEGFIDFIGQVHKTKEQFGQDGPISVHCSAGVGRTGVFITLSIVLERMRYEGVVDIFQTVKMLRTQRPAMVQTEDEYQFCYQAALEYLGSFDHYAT

Row | SMILES | IC50
3 | O=C(CS(=O)(=O)O)Nc1nc2ccc([N+](=O)[O-])cc2s1 [Compound L335N15-07] | > 100 µM
4 | O=C(CS(=O)(=O)O)Nc1nc2ccccc2s1 [Compound L335N15] | > 100 µM

molecular target: LAR (Homo sapiens, UniProt P10586); assay: PTP inhibition assay (pNPP); format: biochemical; conditions: not given
Sequence (P10586 30-1907): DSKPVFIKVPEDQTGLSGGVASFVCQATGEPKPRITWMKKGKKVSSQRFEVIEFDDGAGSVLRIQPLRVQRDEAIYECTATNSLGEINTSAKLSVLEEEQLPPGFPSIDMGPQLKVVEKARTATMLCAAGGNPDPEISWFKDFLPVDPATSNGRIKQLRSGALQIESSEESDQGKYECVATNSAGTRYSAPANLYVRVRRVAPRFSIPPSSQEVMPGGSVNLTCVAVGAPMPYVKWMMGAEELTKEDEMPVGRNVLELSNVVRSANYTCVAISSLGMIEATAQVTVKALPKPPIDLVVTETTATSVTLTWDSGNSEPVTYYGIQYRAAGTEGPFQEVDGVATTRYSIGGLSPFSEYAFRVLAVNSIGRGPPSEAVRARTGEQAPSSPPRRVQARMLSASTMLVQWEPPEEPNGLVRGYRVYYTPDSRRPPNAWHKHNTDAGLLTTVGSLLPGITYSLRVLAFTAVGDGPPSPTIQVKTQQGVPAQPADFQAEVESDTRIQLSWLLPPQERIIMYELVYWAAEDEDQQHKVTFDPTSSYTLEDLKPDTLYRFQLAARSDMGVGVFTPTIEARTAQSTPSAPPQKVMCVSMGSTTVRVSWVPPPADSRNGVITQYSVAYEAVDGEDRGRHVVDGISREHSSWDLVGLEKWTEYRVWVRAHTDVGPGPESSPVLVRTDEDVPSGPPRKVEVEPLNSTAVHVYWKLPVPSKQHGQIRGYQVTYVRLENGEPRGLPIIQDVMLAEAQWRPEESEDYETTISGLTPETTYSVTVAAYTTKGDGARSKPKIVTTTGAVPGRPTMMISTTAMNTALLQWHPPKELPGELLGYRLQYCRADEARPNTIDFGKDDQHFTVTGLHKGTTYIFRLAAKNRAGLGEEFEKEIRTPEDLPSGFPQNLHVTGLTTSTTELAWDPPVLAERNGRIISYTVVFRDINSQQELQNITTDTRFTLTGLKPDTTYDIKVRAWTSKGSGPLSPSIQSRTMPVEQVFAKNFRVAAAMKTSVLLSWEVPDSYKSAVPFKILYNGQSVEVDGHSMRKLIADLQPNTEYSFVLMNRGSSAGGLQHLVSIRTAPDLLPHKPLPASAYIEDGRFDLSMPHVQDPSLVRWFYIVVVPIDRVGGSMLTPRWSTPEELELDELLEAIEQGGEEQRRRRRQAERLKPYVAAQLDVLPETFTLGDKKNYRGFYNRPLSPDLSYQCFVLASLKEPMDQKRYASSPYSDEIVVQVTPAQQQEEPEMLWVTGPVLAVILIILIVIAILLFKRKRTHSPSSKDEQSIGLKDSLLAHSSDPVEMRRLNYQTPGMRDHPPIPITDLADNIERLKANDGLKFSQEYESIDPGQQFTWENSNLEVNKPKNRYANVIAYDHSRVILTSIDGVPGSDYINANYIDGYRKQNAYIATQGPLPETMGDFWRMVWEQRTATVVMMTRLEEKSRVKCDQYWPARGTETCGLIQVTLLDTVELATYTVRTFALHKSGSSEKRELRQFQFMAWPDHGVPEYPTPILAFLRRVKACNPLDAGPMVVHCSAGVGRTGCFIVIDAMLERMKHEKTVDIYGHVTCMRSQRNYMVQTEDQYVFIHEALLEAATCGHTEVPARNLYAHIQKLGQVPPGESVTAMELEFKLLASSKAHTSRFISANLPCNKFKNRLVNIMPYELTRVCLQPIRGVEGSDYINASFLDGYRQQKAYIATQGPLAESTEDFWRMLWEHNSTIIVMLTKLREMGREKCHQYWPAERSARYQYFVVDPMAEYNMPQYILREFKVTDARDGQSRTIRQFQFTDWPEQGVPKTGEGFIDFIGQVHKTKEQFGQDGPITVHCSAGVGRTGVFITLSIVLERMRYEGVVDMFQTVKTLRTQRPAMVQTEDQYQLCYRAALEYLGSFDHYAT

Row | SMILES | IC50
5 | Cc1c(Br)cc(NC(=O)CS(=O)(=O)O)cc1Br | > 100 µM
6 | O=C(CS(=O)(=O)O)Nc1nc2ccc([N+](=O)[O-])cc2s1 [Compound L335N15-07] | > 100 µM
7 | O=C(CS(=O)(=O)O)Nc1nc2ccccc2s1 [Compound L335N15] | > 100 µM

molecular target: T2, Ssu72 (Homo sapiens, UniProt Q9NP77); assay: PTP inhibition assay (pNPP); format: biochemical; conditions: IC50 Ssu72
T2 sequence (Q9NP77 1-194): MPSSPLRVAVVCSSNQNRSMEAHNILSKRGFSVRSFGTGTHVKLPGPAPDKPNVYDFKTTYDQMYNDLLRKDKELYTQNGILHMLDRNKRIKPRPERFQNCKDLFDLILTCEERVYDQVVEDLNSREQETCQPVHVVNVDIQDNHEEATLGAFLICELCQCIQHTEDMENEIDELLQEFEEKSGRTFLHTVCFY

Row | SMILES | IC50
8 | Cc1c(Br)cc(NC(=O)C(c2ccccc2)S(=O)(=O)O)cc1Br (stereo not shown) [Compound L319M34] | > 100 µM
9 | O=C(Nc1ccc(-c2ccccc2)cc1)C(c1ccccc1)S(=O)(=O)O (stereo not shown) [Compound L319N08] | 72.9 µM

same assay, conditions: pNPP at Km, pH 7.0, 25° C.; read-out: IC50 Ssu72

Row | SMILES | IC50
10 | O=C(NCCNC(=O)C(c1ccccc1)S(=O)(=O)O)c1cccc(C(=O)c2ccccc2)c1 (stereo not shown) [Compound L319-02-A60] | > 200 µM
11 | O=C(NCc1ccc(NC(=O)C(c2ccccc2)S(=O)(=O)O)cc1)c1ccccc1-c1ccc(C(F)(F)F)cc1 (stereo not shown) [Compound L319-05-A64] | 170 µM
12 | CCCCc1ccc(NC(=O)C(=O)Nc2ccccc2NC(=O)C(c2ccccc2)S(=O)(=O)O)cc1 (stereo not shown) [Compound L319-21-M06] | > 50 µM
13 | O=C(Nc1cccc(OCc2ccccc2)c1)C(=O)Nc1ccccc1NC(=O)C(c1ccccc1)S(=O)(=O)O (stereo not shown) [Compound L319-21-M52] | > 50 µM
14 | O=C(Nc1ccc(OCc2ccccc2)c(Cl)c1)C(c1ccccc1)S(=O)(=O)O (stereo not shown) [Compound L319M50] | 66.6 µM
15 | O=C(CS(=O)(=O)O)Nc1nc2ccc([N+](=O)[O-])cc2s1 [Compound L335N15-07] | > 100 µM
16 | O=C(CS(=O)(=O)O)Nc1nc2ccccc2s1 [Compound L335N15] | > 100 µM

molecular target: T3, CD45 (Homo sapiens, UniProt P08575); assay: PTP inhibition assay (pNPP); format: biochemical; conditions: pNPP at Km, pH 7.0, 25° C.
T3 sequence (P08575 26-1306): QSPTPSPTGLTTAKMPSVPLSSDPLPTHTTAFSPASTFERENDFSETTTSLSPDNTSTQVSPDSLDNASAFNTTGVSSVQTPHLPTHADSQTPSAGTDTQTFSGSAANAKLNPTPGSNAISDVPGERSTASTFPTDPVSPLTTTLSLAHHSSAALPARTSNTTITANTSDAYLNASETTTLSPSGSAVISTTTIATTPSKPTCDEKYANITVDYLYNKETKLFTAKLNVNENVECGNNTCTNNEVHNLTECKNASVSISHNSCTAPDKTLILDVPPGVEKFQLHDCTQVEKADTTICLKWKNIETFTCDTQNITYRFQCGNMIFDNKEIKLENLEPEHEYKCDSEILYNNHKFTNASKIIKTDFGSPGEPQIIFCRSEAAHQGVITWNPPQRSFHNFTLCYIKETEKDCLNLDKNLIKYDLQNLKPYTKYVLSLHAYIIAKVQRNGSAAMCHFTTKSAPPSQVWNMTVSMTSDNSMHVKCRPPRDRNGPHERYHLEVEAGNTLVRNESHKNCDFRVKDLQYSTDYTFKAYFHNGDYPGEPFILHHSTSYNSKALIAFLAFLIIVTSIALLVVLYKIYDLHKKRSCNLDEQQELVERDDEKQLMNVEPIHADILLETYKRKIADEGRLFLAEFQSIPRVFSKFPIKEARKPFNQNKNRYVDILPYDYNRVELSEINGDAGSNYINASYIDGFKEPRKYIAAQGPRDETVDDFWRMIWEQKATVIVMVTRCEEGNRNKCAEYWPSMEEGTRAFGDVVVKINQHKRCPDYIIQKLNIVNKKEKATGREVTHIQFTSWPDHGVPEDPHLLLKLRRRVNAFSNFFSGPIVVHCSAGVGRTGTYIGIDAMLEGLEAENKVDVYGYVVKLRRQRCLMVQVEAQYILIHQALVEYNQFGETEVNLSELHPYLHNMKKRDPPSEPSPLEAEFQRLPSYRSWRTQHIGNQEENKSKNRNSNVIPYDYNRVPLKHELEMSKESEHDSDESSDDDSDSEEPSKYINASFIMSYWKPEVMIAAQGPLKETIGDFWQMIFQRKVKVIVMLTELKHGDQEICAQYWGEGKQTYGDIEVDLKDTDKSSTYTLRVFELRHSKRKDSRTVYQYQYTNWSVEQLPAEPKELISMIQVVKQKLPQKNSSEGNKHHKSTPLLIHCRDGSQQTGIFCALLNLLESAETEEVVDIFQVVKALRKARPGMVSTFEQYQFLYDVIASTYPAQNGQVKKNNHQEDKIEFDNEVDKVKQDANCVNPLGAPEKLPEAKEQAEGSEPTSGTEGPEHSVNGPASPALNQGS

Row | SMILES | IC50
17 | Cc1c(Br)cc(NC(=O)CS(=O)(=O)O)cc1Br | > 100 µM
18 | O=C(CS(=O)(=O)O)Nc1nc2ccc([N+](=O)[O-])cc2s1 [Compound L335N15-07] | > 100 µM
19 | O=C(CS(=O)(=O)O)Nc1nc2ccccc2s1 [Compound L335N15] | > 100 µM

molecular target: T4, Laforin (Homo sapiens, UniProt O95278); assay: PTP inhibition assay (pNPP); format: biochemical; conditions: 100 μM
T4 sequence (O95278 1-331): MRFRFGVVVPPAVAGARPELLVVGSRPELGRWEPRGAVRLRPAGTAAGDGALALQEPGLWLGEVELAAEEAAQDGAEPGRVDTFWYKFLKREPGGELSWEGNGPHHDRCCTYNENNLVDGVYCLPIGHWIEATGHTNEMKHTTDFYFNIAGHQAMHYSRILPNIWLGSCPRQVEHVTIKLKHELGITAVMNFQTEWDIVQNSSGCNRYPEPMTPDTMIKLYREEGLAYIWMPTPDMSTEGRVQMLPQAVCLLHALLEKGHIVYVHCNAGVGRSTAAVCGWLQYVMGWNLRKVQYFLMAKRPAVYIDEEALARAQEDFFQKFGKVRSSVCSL

Row | SMILES | Inhibition of Laforin at 100 μM
20 | O=C(CS(=O)(=O)O)Nc1nc2ccc([N+](=O)[O-])cc2s1 [Compound L335N15-07] | no detectable inhibition

same assay, conditions: IC50 Laforin, pNPP at Km, pH 7.0, 25° C.

Row | SMILES | IC50
21 | Cc1c(Br)cc(NC(=O)CS(=O)(=O)O)cc1Br | > 100 µM

same assay, conditions: pNPP at Km, pH 7.0, 25° C.; read-out: IC50 Laforin

Row | SMILES | IC50
22 | O=C(NCCNC(=O)C(c1ccccc1)S(=O)(=O)O)c1cccc(C(=O)c2ccccc2)c1 (stereo not shown) [Compound L319-02-A60] | 9 µM
23 | O=C(NCc1ccc(NC(=O)C(c2ccccc2)S(=O)(=O)O)cc1)c1ccccc1-c1ccc(C(F)(F)F)cc1 (stereo not shown) [Compound L319-05-A64] | 0.8 µM
24 | CCCCc1ccc(NC(=O)C(=O)Nc2ccccc2NC(=O)C(c2ccccc2)S(=O)(=O)O)cc1 (stereo not shown) [Compound L319-21-M06] | 0.14 µM
25 | O=C(Nc1cccc(OCc2ccccc2)c1)C(=O)Nc1ccccc1NC(=O)C(c1ccccc1)S(=O)(=O)O (stereo not shown) [Compound L319-21-M52] | 0.15 µM
26 | O=C(Nc1ccc(OCc2ccccc2)c(Cl)c1)C(c1ccccc1)S(=O)(=O)O (stereo not shown) [Compound L319M50] | 2.06 µM
27 | O=C(CS(=O)(=O)O)Nc1nc2ccc([N+](=O)[O-])cc2s1 [Compound L335N15-07] | > 100 µM
28 | O=C(CS(=O)(=O)O)Nc1nc2ccccc2s1 [Compound L335N15] | > 100 µM
